Assay [1] concerns Neuron. Briefly: Inhibition of NGF-stimulated extension of neural processes in chick embryo neurons at 80 nM. The assay is classed as functional. Particulars: Gallus gallus.
Assay [2] deals with Neuron. Briefly: Inhibition of NGF-stimulated extension of neural processes in chick embryo neurons at 300 nM. Format: functional, cell-based. Particulars: Gallus gallus.

Calls of active or inactive are those of the source. The rule behind the calls is not given here.

For orientation: inhibition means the drop in the measured response relative to a control, in per cent. Read a high inhibition as strong suppression. In the assay on Neuron [1], `C=C1C(=O)O[C@H]2[C@H]1[C@@H](OC(=O)[C@]1(C)CO1)CC(=C)[C@@H]1C[C@H](O)[C@]3(CO3)[C@H]21` [REPIN] had an inhibition at 0.08 µM of 50%.

Take `C=C1C(=O)O[C@H]2[C@H]1[C@@H](OC(=O)[C@@]1(C)CO1)CC(=C)[C@@H]1C[C@H](O)[C@]3(CO3)[C@H]21`: the result in the assay on Neuron [2] was Active.
